# In patent US20160160294A1, “METHODS AND MATERIALS FOR PREDICTING RESPONSE TO NIRAPARIB” (Tesaro, priority 2014, published 2016):
# Like-named read-outs stand apart in the source and are kept apart here.
# Columns and labels:
# [1] = system: TNBC patient-derived xenograft (PDX) models
# Method: Mice were assigned to homogeneous groups of 10 animals when tumors reached a size of 70-200 mm^3, and were treated with niraparib at 50 mg/kg or 75 mg/kg once a day for 28 days. The compound was delivered by gavage (p.o) under a volume of […] for a 25-g mouse. Tumor volume was evaluated by measuring biweekly tumor diameters with a caliper.
# [2] = system: ovarian cancer PDX models
# Method: A series of ovarian tumors were implanted orthotopically in mice and the resulting patient-derived xenograft (PDX) models were evaluated for niraparib sensitivity by ultrasound imaging. The BRCA status (mutated “BRCAmut” or wild-type “BRCAwt”) of each PDX model was evaluated, with BRCA1/2 variants identified by the test were classified in accordance with the recommendations of the American College of Medical Genetics and Genomics (ACMG) for standards in the interpretation and reporting of sequence variations. HRD scores were also determined for the PDX models as described in Examples 1 & 2.
# [3] = system: basal breast cancer (BBC) patient-derived xenograft (PDX) models; settings: subset of BBC PDX models; cited from earlier work
smiles,measurement,setting,value
NC(=O)c1cccc2cn(-c3ccc([C@@H]4CCCNC4)cc3)nc12 [niraparib],effect on tumor volume,[1]; T330 model (FIG. 8),regression of tumor volume
same,number of TNBC PDX models whose growth was significantly inhibited,"[1]; among 20 tested, 50 mg/kg or 75 mg/kg once a day for 28 days, p.o.",6
same,activity in TNBC PDX models,[1]; subset of TNBC PDX models,robust activity
same,Response rate,[2]; All models (8/26),31% (8/26)
same,Response rate,[2]; BRCA1/2 deficient models (4/8),50% (4/8)
same,Response rate,[2]; HRD+ BRCA wt models (4/8),50% (4/8)
same,response of BBC PDX models to single agent treatment,[3],responded robustly
